Reference: US6355799B1, “Substituted benzene compounds, process for their preparation, and herbicidal and defoliant compositions containing them” (ISK Americas Incorporated, priority 1997, dated 2002)

Tests used:
Format in all cases: in vivo
[1] = system: redroot pigweed (Amaranthus retroflexus, AMARE); experiment: Pre-emerge test, greenhouse herbicide activity screening; details: for phytotoxicity rating AMARE: pre-emerge, 14 days after application, rating scale 0-100; for Pre-emerge Herbicidal Activity AMARE: phytotoxicity rating 0-100, 14 days after application
Method in brief: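 Visual ratings on a 0-100 scale (0 no damage, 100 all plants dead) were taken at 14 days after treatment. Rates of 15-1000 g ai/ha in acetone, 187 l/ha, were sprayed onto soil one day after planting (pre-emerge) or onto 2-3 leaf plants with 0.25% v/v surfactant (post-emerge).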

[2] = system: barnyardgrass (Echinochloa crus-galli, ECHCG); experiment: as above; details: for phytotoxicity rating ECHCG: pre-emerge, 14 days after application, rating scale 0-100; for Pre-emerge Herbicidal Activity ECHCG: phytotoxicity rating 0-100, 14 days after application
Method in brief: (§1)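 Applied at 15–1000 g ai/ha from acetone in 187 l/ha spray volume. Post-emergence applications included 0.25% v/v non-ionic surfactant and reached plants sown 8–21 days before. Pre-emergence applications were incorporated by surface watering. Efficacy or crop damage was rated on a 0–100 scale after 14 days.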

[3] = system: green foxtail (Setaria viridis, SETVI); experiment: as above; details: for phytotoxicity rating SETVI: pre-emerge, 14 days after application, rating scale 0-100; for Pre-emerge Herbicidal Activity SETVI: phytotoxicity rating 0-100, 14 days after application
Method in brief: as §1

[4] = system: ivyleaf morningglory (Ipomoea hederacea, IPOHE); experiment: as above; details: for phytotoxicity rating IPOHE: pre-emerge, 14 days after application, rating scale 0-100; for Pre-emerge Herbicidal Activity IPOHE: phytotoxicity rating 0-100, 14 days after application
Method in brief: as §1

[5] = system: johnsongrass (Sorghum halepense, SORHA); experiment: as above; details: for phytotoxicity rating SORHA: pre-emerge, 14 days after application, rating scale 0-100; for Pre-emerge Herbicidal Activity SORHA: phytotoxicity rating 0-100, 14 days after application
Method in brief: as §1

[6] = system: lambsquarters (Chenopodium album, CHEAL); experiment: as above; details: for phytotoxicity rating CHEAL: pre-emerge, 14 days after application, rating scale 0-100; for Pre-emerge Herbicidal Activity CHEAL: phytotoxicity rating 0-100, 14 days after application
Method in brief: as §1

[7] = system: large crabgrass (Digitaria sanguinalis, DIGSA); experiment: as above; details: for phytotoxicity rating DIGSA: pre-emerge, 14 days after application, rating scale 0-100; for Pre-emerge Herbicidal Activity DIGSA: phytotoxicity rating 0-100, 14 days after application
Method in brief: as §1

[8] = system: sicklepod (Cassia obtusifolia, CASOB); experiment: as above; details: for phytotoxicity rating CASOB: pre-emerge, 14 days after application, rating scale 0-100; for Pre-emerge Herbicidal Activity CASOB: phytotoxicity rating 0-100, 14 days after application
Method in brief: as §1

[9] = system: velvetleaf (Abutilon theophrasti, ABUTH); experiment: as above; details: for phytotoxicity rating ABUTH: pre-emerge, 14 days after application, rating scale 0-100; for Pre-emerge Herbicidal Activity ABUTH: phytotoxicity rating 0-100, 14 days after application
Method in brief: as §1

[10] = system: field corn (Zea mays L., var. Dekalb 535, CORN); experiment: Pre-emerge test, crop safety; details: for phytotoxicity rating CORN: pre-emerge, 14 days after application, rating scale 0-100; for Pre-emerge Herbicidal Activity CORN: crop damage rating 0-100, 14 days after application
Method in brief: (§2)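 Fourteen days after spraying, crop and weed injury was graded visually from 0, no effect, to 100, every plant dead. Test substances were dissolved in acetone and applied at 15–1000 g ai/ha with a flat-fan nozzle. Application was either pre-emergence, one day after sowing, or post-emergence at the 2–3 leaf stage.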

[11] = system: upland rice (Oryza sp., var. Tebonnet, RICE); experiment: Pre-emerge test, crop safety; details: for phytotoxicity rating RICE: pre-emerge, 14 days after application, rating scale 0-100; for Pre-emerge Herbicidal Activity RICE: crop damage rating 0-100, 14 days after application
Method in brief: as §2

[12] = system: barnyardgrass (Echinochloa crus-galli, ECHCG); experiment: Post-emerge test, greenhouse herbicide activity screening; details: post-emerge, 14 days after application, rating scale 0-100
Method in brief: (§3)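 Compounds in acetone were track-sprayed at 15-1000 g ai/ha (187 l/ha) on sandy loam pots: pre-emerge one day after seeding, post-emerge at 2-3 leaf stage with 0.25% v/v non-ionic surfactant. Phytotoxicity was rated 14 days later on a 0 (no damage) to 100 (complete death) scale.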

[13] = system: green foxtail (Setaria viridis, SETVI); experiment: as above; details: post-emerge, 14 days after application, rating scale 0-100
Method in brief: as §3

[14] = system: ivyleaf morningglory (Ipomoea hederacea, IPOHE); experiment: as above; details: post-emerge, 14 days after application, rating scale 0-100
Method in brief: as §3

[15] = system: johnsongrass (Sorghum halepense, SORHA); experiment: as above; details: post-emerge, 14 days after application, rating scale 0-100
Method in brief: as §3

[16] = system: lambsquarters (Chenopodium album, CHEAL); experiment: as above; details: post-emerge, 14 days after application, rating scale 0-100
Method in brief: as §3

[17] = system: large crabgrass (Digitaria sanguinalis, DIGSA); experiment: as above; details: post-emerge, 14 days after application, rating scale 0-100
Method in brief: as §3

[18] = system: redroot pigweed (Amaranthus retroflexus, AMARE); experiment: as above; details: post-emerge, 14 days after application
Method in brief: as §3

[19] = system: sicklepod (Cassia obtusifolia, CASOB); experiment: as above; details: post-emerge, 14 days after application, rating scale 0-100
Method in brief: as §3

[20] = system: velvetleaf (Abutilon theophrasti, ABUTH); experiment: as above; details: post-emerge, 14 days after application, rating scale 0-100
Method in brief: as §3

[21] = system: field corn (Zea mays L., var. Dekalb 535, CORN); experiment: Post-emerge test, crop safety; details: post-emerge, 14 days after application, rating scale 0-100
Method in brief: as §1

[22] = system: upland rice (Oryza sp., var. Tebonnet, RICE); experiment: Post-emerge test, crop safety; details: post-emerge, 14 days after application, rating scale 0-100
Method in brief: as §1

[23] = 63 g ai/ha, rating scale 0-100 (0 no damage, 100 complete death)
[24] = 250 g ai/ha, rating scale 0-100

Cn1c(C(F)(F)F)cc(=O)n(-c2ccc(Cl)cc2/C=C/c2ccc3ccccc3c2)c1=O [14-59]
0: phytotoxicity rating AMARE ([1]; 63 g ai/ha) | phytotoxicity rating AMARE ([1]; 250 g ai/ha) | phytotoxicity rating ECHCG ([2]; 63 g ai/ha) | phytotoxicity rating ECHCG ([2]; 250 g ai/ha) | phytotoxicity rating SETVI ([3]; 63 g ai/ha) | phytotoxicity rating SETVI ([3]; 250 g ai/ha) | phytotoxicity rating IPOHE ([4]; 63 g ai/ha) | phytotoxicity rating IPOHE ([4]; 250 g ai/ha) | phytotoxicity rating SORHA ([5]; 63 g ai/ha) | phytotoxicity rating SORHA ([5]; 250 g ai/ha) | phytotoxicity rating CHEAL ([6]; 250 g ai/ha) | phytotoxicity rating DIGSA ([7]; 63 g ai/ha) | phytotoxicity rating DIGSA ([7]; 250 g ai/ha) | phytotoxicity rating CASOB ([8]; 63 g ai/ha) | phytotoxicity rating CASOB ([8]; 250 g ai/ha) | phytotoxicity rating ABUTH ([9]; 63 g ai/ha) | phytotoxicity rating ABUTH ([9]; 250 g ai/ha) | phytotoxicity rating CORN ([10]; 63 g ai/ha) | phytotoxicity rating CORN ([10]; 250 g ai/ha) | phytotoxicity rating RICE ([11]; 63 g ai/ha) | phytotoxicity rating RICE ([11]; 250 g ai/ha) | Post-emerge Herbicidal Activity ECHCG (phytotoxicity rating) ([12]; 63 g ai/ha) | Post-emerge Herbicidal Activity ECHCG (phytotoxicity rating) ([12]; 250 g ai/ha) | Post-emerge Herbicidal Activity SETVI (phytotoxicity rating) ([13]; 63 g ai/ha) | Post-emerge Herbicidal Activity SETVI (phytotoxicity rating) ([13]; 250 g ai/ha) | Post-emerge Herbicidal Activity SORHA (phytotoxicity rating) ([15]; 63 g ai/ha) | Post-emerge Herbicidal Activity SORHA (phytotoxicity rating) ([15]; 250 g ai/ha) | Post-emerge Herbicidal Activity DIGSA (phytotoxicity rating) ([17]; 63 g ai/ha) | Post-emerge Herbicidal Activity DIGSA (phytotoxicity rating) ([17]; 250 g ai/ha) | Post-emerge Herbicidal Activity CASOB (phytotoxicity rating) ([19]; 63 g ai/ha) | Post-emerge Herbicidal Activity CORN (crop damage rating) ([21]; 63 g ai/ha) | Post-emerge Herbicidal Activity CORN (crop damage rating) ([21]; 250 g ai/ha) | Post-emerge Herbicidal Activity RICE (crop damage rating) ([22]; 63 g ai/ha) | Post-emerge Herbicidal Activity RICE (crop damage rating) ([22]; 250 g ai/ha)
40: phytotoxicity rating CHEAL ([6]; 63 g ai/ha)
30: Post-emerge Herbicidal Activity IPOHE (phytotoxicity rating) ([14]; 63 g ai/ha) | Post-emerge Herbicidal Activity IPOHE (phytotoxicity rating) ([14]; 250 g ai/ha) | Post-emerge Herbicidal Activity ABUTH (phytotoxicity rating) ([20]; 250 g ai/ha)
20: Post-emerge Herbicidal Activity AMARE (phytotoxicity rating) [18, 23] | Post-emerge Herbicidal Activity AMARE (phytotoxicity rating) [18, 24]
50: Post-emerge Herbicidal Activity ABUTH (phytotoxicity rating) ([20]; 63 g ai/ha)
10: Post-emerge Herbicidal Activity CHEAL (phytotoxicity rating) ([16]; 63 g ai/ha) | Post-emerge Herbicidal Activity CHEAL (phytotoxicity rating) ([16]; 250 g ai/ha) | Post-emerge Herbicidal Activity CASOB (phytotoxicity rating) ([19]; 250 g ai/ha)

COc1c(Cl)cc(F)c(-n2c(=O)cc(C(F)(F)F)n(C)c2=O)c1NC(=O)OCc1ccccc1[N+](=O)[O-] [4-34]
90: Pre-emerge Herbicidal Activity ECHCG ([2]; 250 g ai/ha) | Pre-emerge Herbicidal Activity DIGSA ([7]; 63 g ai/ha) | Pre-emerge Herbicidal Activity CORN ([10]; 250 g ai/ha) | phytotoxicity rating IPOHE ([14]; 250 g ai/ha) | phytotoxicity rating CASOB ([19]; 63 g ai/ha)
60: phytotoxicity rating DIGSA ([17]; 250 g ai/ha)
35: phytotoxicity rating DIGSA ([17]; 63 g ai/ha)
100: Pre-emerge Herbicidal Activity AMARE ([1]; 63 g ai/ha) | Pre-emerge Herbicidal Activity AMARE ([1]; 250 g ai/ha) | Pre-emerge Herbicidal Activity SETVI ([3]; 250 g ai/ha) | Pre-emerge Herbicidal Activity CHEAL ([6]; 63 g ai/ha) | Pre-emerge Herbicidal Activity CHEAL ([6]; 250 g ai/ha) | Pre-emerge Herbicidal Activity ABUTH ([9]; 63 g ai/ha) | Pre-emerge Herbicidal Activity ABUTH ([9]; 250 g ai/ha) | phytotoxicity rating IPOHE ([14]; 63 g ai/ha) | phytotoxicity rating CHEAL ([16]; 63 g ai/ha) | phytotoxicity rating CHEAL ([16]; 250 g ai/ha) | phytotoxicity rating AMARE [18, 23] | phytotoxicity rating AMARE [18, 24] | phytotoxicity rating CASOB ([19]; 250 g ai/ha) | phytotoxicity rating ABUTH ([20]; 63 g ai/ha) | phytotoxicity rating ABUTH ([20]; 250 g ai/ha)
40: Pre-emerge Herbicidal Activity SORHA ([5]; 63 g ai/ha) | Pre-emerge Herbicidal Activity CASOB ([8]; 63 g ai/ha) | phytotoxicity rating RICE (crop damage) ([22]; 63 g ai/ha)
30: Pre-emerge Herbicidal Activity IPOHE ([4]; 63 g ai/ha) | phytotoxicity rating SORHA ([15]; 63 g ai/ha) | phytotoxicity rating SORHA ([15]; 250 g ai/ha)
75: phytotoxicity rating SETVI ([13]; 250 g ai/ha)
10: Pre-emerge Herbicidal Activity CORN ([10]; 63 g ai/ha)
80: Pre-emerge Herbicidal Activity SETVI ([3]; 63 g ai/ha) | Pre-emerge Herbicidal Activity IPOHE ([4]; 250 g ai/ha) | Pre-emerge Herbicidal Activity SORHA ([5]; 250 g ai/ha) | phytotoxicity rating RICE (crop damage) ([22]; 250 g ai/ha)
95: Pre-emerge Herbicidal Activity DIGSA ([7]; 250 g ai/ha) | Pre-emerge Herbicidal Activity CASOB ([8]; 250 g ai/ha) | Pre-emerge Herbicidal Activity RICE ([11]; 250 g ai/ha)
25: phytotoxicity rating CORN (crop damage) ([21]; 63 g ai/ha)
20: phytotoxicity rating ECHCG ([12]; 63 g ai/ha)
50: Pre-emerge Herbicidal Activity ECHCG ([2]; 63 g ai/ha) | Pre-emerge Herbicidal Activity RICE ([11]; 63 g ai/ha) | phytotoxicity rating ECHCG ([12]; 250 g ai/ha) | phytotoxicity rating SETVI ([13]; 63 g ai/ha) | phytotoxicity rating CORN (crop damage) ([21]; 250 g ai/ha)
